Laboratory results taken from patent US20100105729A1, “ARYL-SUBSTITUTED HETEROCYCLIC PDE4 INHIBITORS AS ANTI-INFLAMMATORY AGENTS” (KALYPSYS, INC., priority 2006, published 2010).

target: T1, PDE4B (Homo sapiens, UniProt Q07343); assay: PDE4 IMAP Assay; format: biochemical; conditions: catalytic domain of PDE4B, fluorescence polarization
T1 construct: hexa-histidine (His6) (N); made in house
Excerpt: Compounds may be screened for functional potency in in vitro biochemical assays for their ability to inhibit the activity of phosphodiesterase (PDE) enzymes. A commercial PDE assay, Molecular Device's PDE IMAP assay, was modified and utilized to measure the inhibitory activity of compounds on PDE isoforms. The IMAP technology is based on the high affinity binding of phosphate by immobilized metal (MIII) coordination complexes on nanoparticles. This IMAP “binding reagent” complexes with phosphate groups on the nucleotide monophosphates generated in the reaction. Such binding causes a change in the rate of the molecular motion of the nucleotide, and results in an increase in the fluorescence polarization value observed for the fluorescent label attached to the substrate. PDE inhibitors prevent the generation of nucleotide monophosphates and the subsequent increase in polarization value observed for the fluorescent label attached to the substrate. The catalytic domain of PDE4B was fused to an amino-terminus hex-histadine affinity tag and purified. PDE4B enzyme was incubated with compounds for 10 minutes. Fluorescently labeled cyclic AMP substrates were then added to the PDE enzyme mix and incubated for 2 hours at room temperature. IMAP binding reagent was then added to the enzyme mix, incubated for 10-30 minutes and fluorescent polarization of the fluorescently labeled substrate was read either with the Perkin Elmer Viewlux or Molecular Devices Acquest or Analyst. Roflumilast and Rolipram are the positive controls used in the assay.

T1 sequence (Q07343 330-659 limits assumed, species assumed): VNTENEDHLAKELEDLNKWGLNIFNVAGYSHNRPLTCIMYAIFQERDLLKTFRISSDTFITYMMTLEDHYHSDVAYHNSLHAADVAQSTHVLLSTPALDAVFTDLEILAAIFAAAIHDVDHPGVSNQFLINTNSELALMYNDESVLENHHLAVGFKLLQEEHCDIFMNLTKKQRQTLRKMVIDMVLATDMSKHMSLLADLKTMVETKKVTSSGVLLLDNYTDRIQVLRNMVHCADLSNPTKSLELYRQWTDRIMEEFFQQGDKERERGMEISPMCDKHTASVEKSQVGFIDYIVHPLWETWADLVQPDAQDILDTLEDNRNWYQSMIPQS

Structure (SMILES)	inhibition at 10 µM
COc1ccc(C2=NN(C(C)=O)C(c3cn(-c4ccccc4)nc3-c3ccccc3)C2)cc1OC (centres unmarked) [Example 73, 1-(3-(3,4-dimethoxyphenyl)-5-(1,3-diphenyl-1H-pyrazol-4-yl)-4,5-dihydro-1H-pyrazol-1-yl)ethanone]	< 50%
COc1ccc(C2=NN(C(=O)c3cc(OC)c(OC)c(OC)c3)C(c3ccc(OC)c(OC)c3)C2)cc1OC (centres unmarked) [Example 78, (3,5-bis(3,4-dimethoxyphenyl)-4,5-dihydro-1H-pyrazol-1-yl)(3,4,5-trimethoxyphenyl)methanone]	< 50%
COc1ccc(C2=NN(C(=O)c3cc(OC)c(OC)c(OC)c3)C(c3ccccc3F)C2)cc1OC (centres unmarked) [Example 79, (3-(3,4-dimethoxyphenyl)-5-(2-fluorophenyl)-4,5-dihydro-1H-pyrazol-1-yl)(3,4,5-trimethoxyphenyl)methanone]	≥ 50%
COc1ccc(C2=NN(C(=O)c3cc(OC)c(OC)c(OC)c3)C(c3ccccc3OC)C2)cc1OC (centres unmarked) [Example 80, (3-(3,4-dimethoxyphenyl)-5-(2-methoxyphenyl)-4,5-dihydro-1H-pyrazol-1-yl)(3,4,5-trimethoxyphenyl)methanone]	< 50%
COc1ccc(C2=NN(S(=O)(=O)c3ccc(C)cc3)C(c3ccc(N(C)C)cc3)C2)cc1OC (centres unmarked) [Example 85, 4-(3-(3,4-dimethoxyphenyl)-1-tosyl-4,5-dihydro-1H-pyrazol-5-yl)-N,N-dimethylaniline]	< 50%
COc1ccc(C2=NN(S(=O)(=O)c3ccccc3)C(c3ccc(OC)c(OC)c3)C2)cc1OC (centres unmarked) [Example 86, 3,5-bis(3,4-dimethoxyphenyl)-1-(phenylsulfonyl)-4,5-dihydro-1H-pyrazole]	≥ 50%
COc1ccc(C2=NN(S(=O)(=O)c3ccc(C)cc3)C(c3ccc(OC)c(OC)c3)C2)cc1OC (centres unmarked) [Example 87, 3,5-bis(3,4-dimethoxyphenyl)-1-tosyl-4,5-dihydro-1H-pyrazole]	< 50%

Continued, values first:

inhibition at 10 µM	Structure (SMILES)
< 50%	COc1ccc(C2=NN(C(=O)CCC(=O)O)C(c3ccc(C)cc3)C2)cc1OC (centres unmarked) [Example 71, 4-(3-(3,4-dimethoxyphenyl)-5-p-tolyl-4,5-dihydro-1H-pyrazol-1-yl)-4-oxobutanoic acid]
< 50%	COc1ccc(C2=NN(C(=O)CCC(=O)O)C(c3ccc(F)cc3)C2)cc1OC (centres unmarked) [Example 72, 4-(3-(3,4-dimethoxyphenyl)-5-(4-fluorophenyl)-4,5-dihydro-1H-pyrazol-1-yl)-4-oxobutanoic acid]
< 50%	COc1ccc(C2=NN(C(C)=O)C(c3cc4cc(C)ccc4nc3Cl)C2)cc1OC (centres unmarked) [Example 74, 1-(5-(2-chloro-6-methylquinolin-3-yl)-3-(3,4-dimethoxyphenyl)-4,5-dihydro-1H-pyrazol-1-yl)ethanone]
< 50%	COc1ccc(C2=NN(C(C)=O)C(c3cc4ccc(C)cc4nc3Cl)C2)cc1OC (centres unmarked) [Example 75, 1-(5-(2-chloro-7-methylquinolin-3-yl)-3-(3,4-dimethoxyphenyl)-4,5-dihydro-1H-pyrazol-1-yl)ethanone]
< 50%	COc1ccc(C2=NN(C(C)=O)C(c3cc4cccc(C)c4nc3Cl)C2)cc1OC (centres unmarked) [Example 76, 1-(5-(2-chloro-8-methylquinolin-3-yl)-3-(3,4-dimethoxyphenyl)-4,5-dihydro-1H-pyrazol-1-yl)ethanone]
< 50%	COc1ccc(C2=NN(C(=O)c3ccc(Br)o3)C(c3ccc(N(C)C)cc3)C2)cc1OC (centres unmarked) [Example 81, (5-bromofuran-2-yl)(3-(3,4-dimethoxyphenyl)-5-(4-(dimethylamino)phenyl)-4,5-dihydro-1H-pyrazol-1-yl)methanone]
< 50%	COc1ccc(C2=NN(C(=O)c3ccc(Br)o3)C(c3cccc(OC)c3OC)C2)cc1OC (centres unmarked) [Example 84, (5-bromofuran-2-yl)(5-(2,3-dimethoxyphenyl)-3-(3,4-dimethoxyphenyl)-4,5-dihydro-1H-pyrazol-1-yl)methanone]
